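Exposure lasted 48 hours, with cells grown in 96-well plates and compounds tested at five concentrations. The concentration for 50% growth inhibition is given as GI50.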 The source made the active and inactive calls. Rule as the data show it: active = GI50 up to about 1.1 µM and inactive = higher.
Key:
Assay in all cases: inhibition of tumour cell growth, NCI panel, 48 h
SF-295 = test system: SF-295
SW-620 = test system: SW-620
MOLT-4 = test system: MOLT-4
SNB-19 = test system: SNB-19
SF-268 = test system: SF-268
K562 = test system: K562
KM12 = test system: KM12
OVCAR-3 = test system: OVCAR-3
CCRF-CEM = test system: CCRF-CEM
OVCAR-4 = test system: OVCAR-4
HOP-92 = test system: HOP-92
NCI-H23 = test system: NCI-H23
A498 = test system: A498
UACC-62 = test system: UACC-62

Measured: GI50

CC1=C(C(=O)Nc2ccc([N+](=O)[O-])cc2)C(c2ccc(N(C)C)cc2)C(C(=O)Nc2ccc([N+](=O)[O-])cc2)=C(C)N1
inactive: SF-295 27.5 µM | SW-620 23.9 µM | MOLT-4 9.14 µM | SNB-19 36.4 µM | SF-268 23.8 µM | K562 6.68 µM | KM12 11.6 µM | OVCAR-3 16 µM | CCRF-CEM 17.8 µM | OVCAR-4 21.1 µM | HOP-92 12.1 µM | NCI-H23 18 µM | A498 20.7 µM

CC1=NN(C(=O)Cc2ccccc2)C(=O)/C1=C\c1ccc(O)cc1
inactive: SF-295 > 100 µM | SW-620 > 100 µM | MOLT-4 > 100 µM | SNB-19 > 100 µM | SF-268 > 100 µM | UACC-62 > 100 µM | K562 > 100 µM | KM12 > 100 µM | OVCAR-3 > 100 µM | CCRF-CEM > 100 µM | OVCAR-4 > 100 µM | HOP-92 > 100 µM | NCI-H23 > 100 µM | A498 > 100 µM

CC(C)(Oc1ccc2c(=O)cc(-c3ccccc3)oc2c1)C(=O)Nc1c(Cl)cccc1Cl
inactive: SF-295 > 100 µM | SW-620 > 100 µM | MOLT-4 76.4 µM | SNB-19 > 100 µM | SF-268 > 100 µM | UACC-62 > 100 µM | K562 12.1 µM | KM12 79.1 µM | OVCAR-3 > 100 µM | CCRF-CEM 57.7 µM | HOP-92 20.1 µM | NCI-H23 > 100 µM | A498 > 100 µM

NNC(=S)N/N=C(\c1nc2ccc(Cl)cc2nc1O)C(O)c1ccc(Cl)cc1Cl (stereo unspecified)
inactive: SF-295 > 100 µM | SW-620 > 100 µM | MOLT-4 > 100 µM | SNB-19 > 100 µM | SF-268 > 100 µM | UACC-62 > 100 µM | K562 > 100 µM | KM12 > 100 µM | CCRF-CEM > 100 µM | OVCAR-4 > 100 µM | HOP-92 > 100 µM | NCI-H23 > 100 µM | A498 > 100 µM

O=C(O)CN(c1ccc(Cl)cc1)S(=O)(=O)c1ccccc1
inactive: SF-295 > 100 µM | SW-620 > 100 µM | MOLT-4 > 100 µM | SNB-19 > 100 µM | SF-268 > 100 µM | UACC-62 > 100 µM | K562 > 100 µM | KM12 > 100 µM | OVCAR-3 > 100 µM | CCRF-CEM > 100 µM | OVCAR-4 > 100 µM | HOP-92 > 100 µM | NCI-H23 > 100 µM | A498 > 100 µM

CC1=C(C(=O)Nc2cccc(C(F)(F)F)c2)C(c2ccccc2F)C(C(=O)Nc2cccc(C(F)(F)F)c2)=C(C)N1
inactive: SF-295 6.52 µM | SW-620 7.08 µM | MOLT-4 2.6 µM | SNB-19 7.16 µM | SF-268 6.52 µM | K562 3.96 µM | KM12 3.74 µM | OVCAR-3 4.66 µM | CCRF-CEM 3.09 µM | OVCAR-4 3.08 µM | HOP-92 2.8 µM | NCI-H23 4.59 µM | A498 9.16 µM

COC(=O)C(=O)C(C(=O)C1=NS(=O)(=O)c2cc(S(N)(=O)=O)c(Cl)cc2N1)c1nc2ccc(C(=O)c3ccccc3)cc2nc1O (stereo unspecified)
inactive: SF-295 72.4 µM | SW-620 > 100 µM | MOLT-4 48.6 µM | SNB-19 > 100 µM | SF-268 > 100 µM | UACC-62 63.2 µM | K562 40 µM | KM12 67.6 µM | CCRF-CEM 75.5 µM | OVCAR-4 81.5 µM | NCI-H23 2.6 µM | A498 51.5 µM

COC(=O)C(C(=O)C(=O)Nc1cccc(OC)c1)c1cnc2ccccc2n1 (stereo unspecified)
inactive: SF-295 > 100 µM | SW-620 > 100 µM | MOLT-4 > 100 µM | SNB-19 > 100 µM | SF-268 > 100 µM | UACC-62 > 100 µM | K562 > 100 µM | KM12 > 100 µM | CCRF-CEM > 100 µM | OVCAR-4 > 100 µM | HOP-92 > 100 µM | NCI-H23 > 100 µM | A498 > 100 µM

Clc1ccc(CN2COc3c(cc(Cl)c4cccnc34)C2)cc1
inactive: SF-295 2.52 µM | SW-620 2.94 µM | MOLT-4 1.7 µM | SNB-19 4.24 µM | SF-268 2.93 µM | UACC-62 1.55 µM | K562 1.52 µM | KM12 2.37 µM | OVCAR-3 1.99 µM | CCRF-CEM 1.79 µM | OVCAR-4 3.33 µM | HOP-92 3.64 µM | NCI-H23 2.57 µM | A498 12.1 µM

Nc1nc2c(nnn2C2C=C(CO)C(O)C2O)c(=O)[nH]1 (stereo unspecified)
inactive: SF-295 > 100 µM | SW-620 66.4 µM | MOLT-4 42.5 µM | SNB-19 > 100 µM | SF-268 > 100 µM | UACC-62 58.6 µM | K562 > 100 µM | KM12 > 100 µM | OVCAR-3 > 100 µM | CCRF-CEM > 100 µM | OVCAR-4 > 100 µM | HOP-92 > 100 µM | NCI-H23 > 100 µM | A498 > 100 µM

CCN(CC)c1c(C(=O)/C=C/c2ccc(OC)cc2)c(-c2ccccc2)nn(C)c1=O
inactive: SF-295 21.5 µM | SW-620 26.5 µM | MOLT-4 2.67 µM | SNB-19 17.8 µM | SF-268 6.52 µM | UACC-62 10.5 µM | K562 9.06 µM | KM12 12.7 µM | CCRF-CEM 6.78 µM | OVCAR-4 8.75 µM | HOP-92 6.07 µM | NCI-H23 10.4 µM | A498 20.9 µM

CO/C=C/c1cc2c(cc1C(OC)OC)OCO2
inactive: SW-620 50 µM | MOLT-4 33.7 µM | SNB-19 36.7 µM | SF-268 52.1 µM | UACC-62 22.6 µM | K562 29.9 µM | KM12 52.6 µM | OVCAR-3 29.9 µM | CCRF-CEM 39.7 µM | OVCAR-4 > 100 µM | HOP-92 40.2 µM | NCI-H23 54 µM

CN1CC(=O)N(C)c2ncn(Cc3ccccc3)c2C1=O
inactive: SF-295 > 100 µM | SW-620 > 100 µM | MOLT-4 > 100 µM | SNB-19 > 100 µM | SF-268 12.2 µM | UACC-62 > 100 µM | K562 > 100 µM | KM12 > 100 µM | OVCAR-3 > 100 µM | CCRF-CEM > 100 µM | OVCAR-4 > 100 µM | NCI-H23 > 100 µM | A498 > 100 µM

N#CC(NNC(=O)Cc1ccccc1)c1cccc(O)c1 (stereo unspecified)
inactive: SF-295 > 100 µM | SW-620 > 100 µM | MOLT-4 > 100 µM | SF-268 > 100 µM | UACC-62 > 100 µM | K562 > 100 µM | KM12 > 100 µM | CCRF-CEM > 100 µM | OVCAR-4 > 100 µM | HOP-92 > 100 µM | NCI-H23 > 100 µM

c1ccc(-c2[nH]c(-c3ccccc3)c(-c3cnccn3)c2-c2cnccn2)cc1
inactive: SF-295 > 100 µM | SW-620 > 100 µM | MOLT-4 > 100 µM | SNB-19 > 100 µM | SF-268 > 100 µM | UACC-62 > 100 µM | K562 > 100 µM | KM12 30.3 µM | OVCAR-3 > 100 µM | CCRF-CEM > 100 µM | OVCAR-4 > 100 µM | HOP-92 > 100 µM | NCI-H23 > 100 µM | A498 > 100 µM
